Source: patent US12268657B2, “Coenzyme Q10 composition, and preparation method and application thereof in cardio-protection” (Guangdong Runhe Biotechnology Co., Ltd, priority 2023, dated 2025)

Tested on: myocardial ischemia rat models
Assay: Protective effect on myocardial ischemia in rat model (coronary artery clamping)
Type: in vivo
Settings: SD rats, 0.2 mg/kg per day for one week
Protocol: Specifically, several SD rats weighing about 200 g were selected to prepare myocardial ischemia rat models by a coronary artery clamping method. The successful-established model rats were uniformly divided into a blank group, a control group, and a treatment group, with 8 rats in each group. The blank group was not treated with any drug during the observation period, the control group was administered with 0.2 mg/kg of coenzyme Q10 per day for one week, and the treatment group was administered with 0.2 mg/kg of the coenzyme Q10 slow-release drug per day for one week. After the one-week administration, the myocardial infarction area, and superoxide dismutase (SOD) and malondialdehyde (MDA) content in the serum of the rats after artery ligation were recorded, and the results were shown in the table below. […] Moreover, after treatment with the slow-release drug, the activity of SOD was improved, and the generation of MDA was inhibited, which was favorable to reducing the occurrence of infarction.

COC1=C(OC)C(=O)C(C/C=C(\C)CC/C=C(\C)CC/C=C(\C)CC/C=C(\C)CC/C=C(\C)CC/C=C(\C)CC/C=C(\C)CC/C=C(\C)CC/C=C(\C)CCC=C(C)C)=C(C)C1=O [coenzyme Q10, Coenzyme Q10]
Myocardial infarction area (%): 14.69 ± 1.14%
MDA (serum): 6.57 ± 0.68 nmol/mL
SOD (NU/mL) (serum): 220.34 ± 8.56 NU/mL
